From paper PMC3177041 (Journal of Cachexia, Sarcopenia and Muscle, 2011)

Test system: male Wistar rats
Experiment: chronic mild stress model, 1% sucrose consumption
Assay type: in vivo, rat
Conditions: stressed and control groups, 10 mg/kg once daily

With `CN(C)CCCN1c2ccccc2CCc2ccccc21` [imipramine] the “body mass gain in the 5 weeks of treatment vs vehicle-treated controls” value was “gained less body mass”.
